Measured values published in US5856334A, “Imidazoquinoline derivatives” (Mochida Pharmaceutical Co., Ltd., priority 1994, dated 1999).
“And” between values parts separate entries of the source, which are not always exact repeats. Equal entries are not always repeated.

What was measured:
[1] = test system: intraperitoneal eosinophils; experiment: Activity on Mouse Intraperitoneal Hypereosinophilic Model (Ascaris suum extract sensitization); type: in vivo, BALB/c male mice; conditions: peroral, once a day, 10 administrations
Description: BALB/c male mice (body weight=ca. 25 g), divided in groups each consisting of five animals, were sensitized by intraperitoneal injection of physiological saline (0.11 mL) containing 0.1 mg of Ascaris suum extract. Seven days later, the same treatment was conducted; three days later, the animals were bled to death and injected intraperitoneally with 3 mL of physiological saline containing 1% dipotassium ethylenediaminetetraacetate (EDTA) and massaged on the abdominal part for about 30 sec. The abdominal part was incised to collect the intraperitoneal fluid, which was centrifuged at 130×g for 10 min. Fetal bovine serum (500 μl) containing 1% EDTA was added to the pellet to prepare a cell suspension. Part of the cell suspension was smeared on a glass slide with a centrifugal smearing device and subjected to Difquick staining. Thereafter, the total white blood cell (WBC) count and the eosinophil count were taken to determine the percentage of eosinophils in the total WBC. The total number of WBCs in the cell suspension was measured with an automatic hemocytometer. Multiplying the percentage of eosinophils in the total WBC by the total number of WBCs provided the number of eosinophils in the cell suspension. […] The mice neither sensitized nor administered the test compounds (untreated group), as well as the mice that were sensitized but not administered the test compounds (control group) were similarly administered 5% aqueous gum arabic perorally. Inhibition of the Increase in Eosinophils (%)={1-(test compound administered group-untreated group)/(control group-untreated group)}×100

[2] = Experiment on Acute Toxicity (oral, survival until 7th day); set-up: species or system ICR male mice; conditions: mouse, in vivo, 1000 mg/kg, peroral, until the 7th day of the administration, read-out: No. of Survivals (converted)
Text: ICR male mice (body weight=ca. 35 g) weighing about 30 g were divided in groups each consisting of one or three animals and administered perorally each of the test compounds as suspended in 5% aqueous gum arabic. The mice were then examined for their survival until the 7th day of the administration.

[3] = test system: eosinophils in BALF; experiment: Activity on Model for the Increase of Eosinophils in the Rat Bronchial Alveolar Lavage Fluid (Sephadex G200 sensitization); type: in vivo, Sd male rats; conditions: peroral, once a day, 10 administrations
Description: Sd male rats (8 wk old), divided in groups each consisting of five animals, were sensitized by an intravenous injection into tail vein of Sephadex G200 suspension (1 mL), that had been prepared to give a concentration of 0.75 mg/ml physiological saline. Seven days later, the same treatment was conducted; three days later, each rat was fitted with an tracheal cannula under anesthetization with pentobarbital and 7 mL of physiological saline containing 1% EDTA was injected via the cannula and recovered; this procedure was repeated three times to collect the BALF, which were centrifuged at 130×g for 10 min. Physiological saline (200 μl) containing 1% EDTA was added to the pellet to prepare a cell suspension. Part of the cell suspension was resuspended in fetal bovine serum containing 1% EDTA, smeared on a glass slide with a centrifugal smearing device and subjected to Difquick staining. Thereafter, the total WBC count and the eosinophil count were taken to determine the percentage of eosinophils in the total WBC. The total number of WBCs in the cell suspension was measured with a hemocytometer after staining with a Turck solution. Multiplying the percentage of eosinophils in the total WBC by the total number of WBCs provided the number of eosinophils in the cell suspension.
Each of the test compounds was suspended in 5% aqueous gum arabic and administered perorally to mice immediately after the initial sensitization on a once-a-day basis for a total of 10 administrations (test compound-treated group). The mice neither sensitized nor administered the test compounds (untreated group), as well as the mice that were sensitized but not administered the test compounds (control group) were similarly administered 5% aqueous gum arabic perorally.
Inhibition of the Increase of Eosinophils (%)={1-(test compound
administered group-untreated group)/(control group-untreated

SMILES | Inhibition of the Increase of Eosinophils (%) ([1]; 30 mg/kg/day) | survival at 168 h [2] [%] | Inhibition of the Increase of Eosinophils (%) ([1]; 100 mg/kg/day) | Inhibition of the Increase of Eosinophils in BALF (%) ([3]; 30 mg/kg/day) | other results
Cl.NC1CCn2c(CCc3ccccc3)nc3cccc1c32 (centres unmarked) [Example 18, 5,6-dihydro-2-(2-phenylethyl)-4H-imidazo[4,5,1-ij]quinolin-6-amine hydrochloride] | 53 |  |  |  | 
OC1CCn2c(CCc3ccccc3)nc3cccc1c32 (single isomer, unassigned; (+)) [Example 11, (+)-5,6-dihydro-2-(2-phenylethyl)-4H-imidazo[4,5,1-ij]quinolin-6-ol] | 43 |  |  |  | 
O=C(O)c1ccccc1C(=O)OC1CCn2c(CCc3ccccc3)nc3cccc1c32 (centres unmarked) [Example 41, 5,6-dihydro-6-(o-carboxybenzoyloxy)-2-(2-phenylethyl)-4H-imidazo[4,5,1-ij]quinoline] |  | 100 |  |  | 
O=C(O)c1ccccc1COC1CCn2c(CCc3ccccc3)nc3cccc1c32 (single isomer, unassigned; (+)) [Example 24, (+)-6-(2-carboxyphenyl)methoxy-5,6-dihydro-2-(2-phenylethyl)-4H-imidazo[4,5,1-ij]quinoline] | 45 |  |  |  | 
OC1CCn2c(CCc3ccccc3)nc3cccc1c32 (centres unmarked) [Example 4, 5,6-dihydro-2-(2-phenylethyl)-4H-imidazo[4,5,1-ij]quinolin-6-ol] | 67 | 100 | 57 | 90 | 
O=C(O)c1cccc(COC2CCn3c(CCc4ccccc4)nc4cccc2c43)c1C(=O)O (centres unmarked) [Example 64, 6-(2,3-dicarboxyphenyl)methoxy-5,6-dihydro-2-(2-phenylethyl)-4H-imidazo[4,5,1-ij]quinoline] | 57 |  |  |  | 
CON=C1CCn2c(CCc3ccccc3)nc3cccc1c32 [Example 35, 5,6-dihydro-6-methoxyimino-2-(2-phenylethyl)-4H-imidazo[4,5,1-ij]quinoline] |  | 100 |  | 73 | 
CC(=O)OCC(=O)[C@@]1(O)CC[C@H]2[C@@H]3CCC4=CC(=O)C=C[C@]4(C)[C@H]3[C@@H](O)C[C@@]21C [Prednisolone Acetate, 11β, 17α, 21-trihydroxypregna-1,4-diene-3,20-dione 21-acetate, reference compound] |  |  |  |  | Inhibition of the Increase of Eosinophils (%) ([1]; 10 mg/kg/day): 65%; Inhibition of the Increase of Eosinophils in BALF (%) ([3]; 10 mg/kg/day): 76% and 69%
O=C1CCn2c(CCc3ccccc3)nc3cccc1c32 [Example 1, 4,5-dihydro-2-(2-phenylethyl)-6H-imidazo[4,5,1-ij]quinolin-6-one] | 48 | 100 | 68 | 68 | 
c1ccc(CCc2nc3cccc4c3n2CCC4)cc1 [Example 13, 5,6-dihydro-2-(2-phenylethyl)-4H-imidazo[4,5,1-ij]quinoline] | 49 | 100 | 64 |  | 
